Assay results reported in US8598355B2, “Amide compound” (Astellas Pharma Inc., priority 2008, dated 2013).

Experiments:
rat EP4 receptor [1] = biological target: T1, rat EP4 receptor (Rattus norvegicus, UniProt P43114); test: Rat EP4 receptor antagonistic activity by measurement of cAMP amount (rEP4 cAMP HTRF assay, CHO cells); type: cell-based; design: expressed in transfected cells; settings: inhibition of cAMP, PGE2 100 nM, CHO cells expressing rat EP4
Protocol: Evaluation Test of Rat EP4 Receptor Antagonistic Activity by Measurement of cAMP Amount
CHO cells in which rat EP4 had been forced to be expressed were seeded in 96-well plates at 2×10^4 cells/100 μL and cultured overnight. The culture medium was replaced with 2 μM Indomethacin/0.1% BSA/alpha-MEM, and further, after 60 minutes, replaced with 1 mM IBMX/2 μM Indomethacin/0.1% BSA/alpha-MEM. After 10 minutes, the test compound was added, and further, after 10 minutes, PGE2 was added at a final concentration of 100 nM. The cells were cultured and reacted in a CO2 incubator (37° C., 5% CO2). After 30 minutes, the culture medium was removed and 100 μL/well of 0.2% Triton X-PBS was added for lysis of the cells. The cAMP contained in this cell lysis solution was measured with a cAMP HiRange kit (Cisbio international). The cell lysis solution was disperesed at 10 μL each into a 384-well U-bottom black microplate (Corning), and a d2 reagent and an europium cryptate reagent were added in this order to each well, each in an amount of 5 μL. It was incubated at room temperature for 60 minutes under light shielding. After incubation, the fluorescence of the cryptate at 620 nm and the fluorescence of the d2 at 655 nm were measured using ARVO1420 (PerkinElmer). The cAMPs of 280, 70, 17.5, 4.38, 1.09, 0.27, and 0.068 nM were measured simultaneously for creating a standard curve. The inhibitory rates were calculated by determining the cAMP amount of each test sample to the value obtained by subtracting the cAMP amount of the group without addition of PGE2 from the cAMP amount of the group with addition of PGE2 of 100 nM. IC50 values are calculated by a Logistic regression method.

rat EP4 receptor [2] = biological target: T1, rat EP4 receptor; test: Evaluation test of rat EP4 receptor affinity ([3H]PGE2 binding, membrane fraction of HEK293 cells expressing rat EP4); design: expressed in transfected cells; host or cells: HEK293 cells, transient transfection with Lipofectamine 2000; membrane fraction; settings: [3H]PGE2 0.3 nM
Protocol: Evaluation Test of Rat EP4 Receptor Affinity
Cell Culturing and Transfection
Using a 10 cm collagen-coated dish (Asahi Glass), HEK293 cells were cultured in D-MEM culture medium, the culture medium was removed at a confluence (90 to 100% density state) and washed with a phosphate buffer saline (PBS), and then the cells were detached with N,N,N′,N′-tetrakis(carboxymethyl)ethylenediamine (EDTA). The number of the cells were counted and seeded on a 15 cm collagen-coated dish to a confluence of 70%. On the next day, to an Opti-MEM culture medium at 1.2 mL/dish was added Lipofectamine 2000 (Invitrogen) at 60 μL/dish, followed by leaving to stand at room temperature for 5 minutes. A plasmid in which rat EP4 (Sequence Number 1) had been inserted into a TA cloning site of pcDNA3.1-V5-His-topo was added thereto at 15 μg/dish. After leaving to stand at room temperature for 30 minutes, the resultant was added to the dish and cultured for 20 to 24 hours. The cell culture was carried out in a CO2 incubator (37° C., 5% CO2).
Preparation of Membrane Fraction
The culture medium was removed by suction, 10 mL of cooled PBS was added thereto per 15 cm dish, and the cells were scraped using a cell scraper (Sumitomo Bakelite). They were washed with cooled PBS (1,200 rpm, 4° C., 5 min), and then suspended in 6 mL of cooled 20 mM Tris-HCl (pH 7.4; Nakalai Tesque Inc., including 5 mM EDTA (Nakalai Tesque Inc.) per dish and the resultant was homogenized using a Polytron and the homogenate was centrifuged (26,000 rpm, 20 min, 4° C.). The obtained precipitate was resuspended in cooled 20 mM Tris-HCl and homogenized again using a Polytron, and the homogenate was centrifuged (26,000 rpm, 20 min, 4° C.). The obtained precipitate was resuspended in 50 mM HEPES (pH 7.5; Dojindo Laboratories) at 1 mL per dish, homogenized using a Polytron, and freeze-stored at −80° C. as a membrane fraction. At this time, a part thereof was used for the measurement of the protein concentration. Measurement of the protein concentration was carried out in duplicate using a Bio-Rad Protein assay kit (Bio-Rad Laboratories) in accordance with the appended standard Protocol.
[^3H]PGE2 50 μL (final concentration 0.3 nM; Perkin Elmer), 100 μL (20 μg/well) of a membrane fraction prepared from the rat EP4 expression cell and 50 μL of a test compound were mixed in a 96-well microplate (Sumitomo Bakelite), incubated at room temperature for 1 hour, filtered by suction on a UniFilter-96 GF/B (Perkin Elmer) using a FilterMate Harvester (Perkin Elmer), and then washed three times with 300 μL/well of a cooled assay buffer. Dilution of [^3H]PGE2 and the membrane fraction was carried out using an assay buffer (50 mM HEPES, 10 mM MgCl2), and dilution of the test compound and the unlabeled PGE2 was carried out using DMSO and an assay buffer. Further, in the case of the addition of a human serum albumin (HSA), dilution was carried out using an assay buffer containing 4% HSA (final concentration 1%; Sigma). The UniFilter-96 GF/B was treated preliminarily by washing twice with 200 μL/well of a cooled assay buffer. The UniFilter-96 GF/B after filtration was dried in a dryer overnight, 50 μL/well of MicroScint20 (Perkin Elmer) was added thereto, and then the radioactivity was measured using a TopCount (Perkin Elmer). For measurement of the non-specific binding, an unlabeled PGE2 (final concentration 1 μM; Cayman) was added. All of the measurements were carried out in duplicate, and the specific binding amount was determined by subtracting the non-specific binding amount from the total binding amount. The Ki value was calculated according to the general methods.
In the connection, Ex represents the below-described Example Compound number.

T1 sequence (P43114 whole entry): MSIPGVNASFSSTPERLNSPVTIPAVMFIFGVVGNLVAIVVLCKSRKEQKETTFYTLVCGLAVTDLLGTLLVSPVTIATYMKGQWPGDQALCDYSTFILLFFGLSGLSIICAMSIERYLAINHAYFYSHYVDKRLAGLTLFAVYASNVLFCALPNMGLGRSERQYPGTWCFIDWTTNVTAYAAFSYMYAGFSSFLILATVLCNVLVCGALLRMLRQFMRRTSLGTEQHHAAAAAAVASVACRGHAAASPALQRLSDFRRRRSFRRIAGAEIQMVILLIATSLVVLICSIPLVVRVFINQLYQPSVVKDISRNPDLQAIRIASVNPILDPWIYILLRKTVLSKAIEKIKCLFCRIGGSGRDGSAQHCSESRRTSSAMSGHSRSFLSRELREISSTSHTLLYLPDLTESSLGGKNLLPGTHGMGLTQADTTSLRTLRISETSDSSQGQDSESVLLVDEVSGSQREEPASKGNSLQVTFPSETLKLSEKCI

Q: Which IC50 (rat EP4 receptor [1]) does the source give for O=C(NC[C@H]1CC[C@H](C(=O)O)CC1)c1cc(Cl)cc2ccn(Cc3ccc4ccccc4n3)c12 [Example 53] here?
A: 0.9 nM

Q: And the Ki (rat EP4 receptor [2])?
A: 1.4 nM

Q: What does the source list for O=C(O)c1ccc(CNC(=O)c2cc(Cl)cc3ccn(Cc4ccc5ccccc5n4)c23)cc1 [Example 57]?
A: IC50 (rat EP4 receptor [1]): 0.76 nM; melting point: 243 to 244 °C (dec.); Ki (rat EP4 receptor [2]): 0.85 nM

Q: What does the source list for O=C(NC[C@H]1CC[C@H](C(=O)O)CC1)c1cc(C(F)(F)F)cc2ccn(Cc3ccc4ccccc4n3)c12 [Example 124]?
A: IC50 (rat EP4 receptor [1]): 1.1 nM; Ki (rat EP4 receptor [2]): 1.4 nM
